Measurements from patent publication US10471119B2, “Composition for preventing, ameliorating, or treating neurological disease containing osmotin peptide as active ingredient” (INDUSTRY-ACADEMIC COOPERATION FOUNDATION GYEONGSANG …, priority 2015, dated 2019).
Residues, ends and D or L forms follow the SMILES beside them.

Columns and labels:
[1] = tested on: human neuroblast line SH-SY5Y; test: ApoTox-Glo Triplex assay (cell viability, cytotoxicity, caspase-3 activity); type: cell-based; details: neuronal cells
Description: Human neuroblast line SH-SY5Y cells were cultured in 100 μl of dulbecco modified eagle medium (DMEM) supplemented with 10% (v/v) fetal bovine serum (FBS) and 1% (w/v) antibiotic (penicillin-streptomycin) at 37° C. and under the condition of 5% CO2.
Cells were seeded in a 96-well plate containing growth medium (DMEM medium containing 10% FBS, 100 units/ml penicillin, and […] streptomycin) in such a way that 100 μl of the culture was seeded in every cell at the population of 2×10^4 cells, and cultured under the condition of 5% CO2 at 37° C. When cells were about 70-90% confluent, they were transformed with pCAX-APP Swe/Ind for 8 hours by using Lipofectamine 3000 according to the manufacturers instructions. Then, the medium was removed by suction and replaced with fresh 100 μl of growth medium containing 0.5 to 20 μM osmotin-peptide. The cells in the fresh medium were incubated for 24 hours.
After 24 hours, ApoTox-Glo™ Triplex assay using Glomax-Multi Detection system was performed according to the manufacturer's instructions to confirm cell viability, cytotoxicity assay, and caspase-3 activity.

[2] = Brain transfer of osmotin peptide-FITC after IP and tail vein (IV) injection, confocal fluorescence; type: in vivo, mice; details: for migration to the hippocampus of the brain: four hours later, FIG. 3
Description: In addition, osmotin peptide-FITC was administered to the mice by intraperitoneal (IP) injection and tail vein injection (IV). Four hours later, the mice were fixed by transcardial perfusion with 4% (v/v) ice-cold paraformaldehyde, and the brain was harvested and post-fixed in 4% (v/v) paraformaldehyde for 72 hours, and finally, transferred to a 20% (w/v) sucrose for 72 hours.
The brain was infiltrated with OCT (optimal cutting temperature compound) under liquid nitrogen, and a 14 μm coronal section was mounted on a ProbeOn Plus slide.
Slides for immunofluorescence analysis were washed twice with 0.01 M PBS buffer for 15 minutes. The sections were covered with proteinase K and incubated for 5 minutes in a humid chamber at the temperature of 37° C. Incubation was performed for one hour in a blocking solution containing 5% (v/v) normal goat serum dissolved in PBS buffer and 0.3% (v/v) Triton X-100. After the blocking process, the mounting cover slips and sections were observed on a confocal laser-scanning microscope (Flouview FV 1000).

With C[C@@H](O)[C@H](NC(=O)[C@@H]1CCCN1C(=O)CNC(=O)[C@H](CS)NC(=O)[C@@H]1CCCN1C(=O)CNC(=O)[C@H](CCC(N)=O)NC(=O)[C@@H](NC(=O)[C@@H](N)CS)[C@@H](C)O)C(=O)O [osmotin peptide] (H-CTQGPCGPT-OH) the cytotoxicity [1] was “little cytotoxicity”, the “migration to the hippocampus of the brain” value ([2]; intraperitoneal (IP) injection) was “migrated to the hippocampus of the brain” and the “migration to cortex and hypothalamus of the brain” value ([2]; intravenous injection, FIG. 4) was “migrated to cortex and hypothalamus of the brain”. The “migration to the hippocampus of the brain” value ([2]; tail vein injection (IV)) was “migrated to the hippocampus of the brain”.
